Results: US11814372B2, “Agonists of EPHA and their uses” (CASE WESTERN RESERVE UNIVERSITY, priority 2017, dated 2023)

Assays:
[1] = target: T1, EphB4 (Homo sapiens, UniProt P54760); assay: Activation of endogenous EphB4 in HEK 293 vector control cells; type: cell-based
T1 construct: host or cells: HEK 293 vector control cells
T1 sequence (P54760 16-987): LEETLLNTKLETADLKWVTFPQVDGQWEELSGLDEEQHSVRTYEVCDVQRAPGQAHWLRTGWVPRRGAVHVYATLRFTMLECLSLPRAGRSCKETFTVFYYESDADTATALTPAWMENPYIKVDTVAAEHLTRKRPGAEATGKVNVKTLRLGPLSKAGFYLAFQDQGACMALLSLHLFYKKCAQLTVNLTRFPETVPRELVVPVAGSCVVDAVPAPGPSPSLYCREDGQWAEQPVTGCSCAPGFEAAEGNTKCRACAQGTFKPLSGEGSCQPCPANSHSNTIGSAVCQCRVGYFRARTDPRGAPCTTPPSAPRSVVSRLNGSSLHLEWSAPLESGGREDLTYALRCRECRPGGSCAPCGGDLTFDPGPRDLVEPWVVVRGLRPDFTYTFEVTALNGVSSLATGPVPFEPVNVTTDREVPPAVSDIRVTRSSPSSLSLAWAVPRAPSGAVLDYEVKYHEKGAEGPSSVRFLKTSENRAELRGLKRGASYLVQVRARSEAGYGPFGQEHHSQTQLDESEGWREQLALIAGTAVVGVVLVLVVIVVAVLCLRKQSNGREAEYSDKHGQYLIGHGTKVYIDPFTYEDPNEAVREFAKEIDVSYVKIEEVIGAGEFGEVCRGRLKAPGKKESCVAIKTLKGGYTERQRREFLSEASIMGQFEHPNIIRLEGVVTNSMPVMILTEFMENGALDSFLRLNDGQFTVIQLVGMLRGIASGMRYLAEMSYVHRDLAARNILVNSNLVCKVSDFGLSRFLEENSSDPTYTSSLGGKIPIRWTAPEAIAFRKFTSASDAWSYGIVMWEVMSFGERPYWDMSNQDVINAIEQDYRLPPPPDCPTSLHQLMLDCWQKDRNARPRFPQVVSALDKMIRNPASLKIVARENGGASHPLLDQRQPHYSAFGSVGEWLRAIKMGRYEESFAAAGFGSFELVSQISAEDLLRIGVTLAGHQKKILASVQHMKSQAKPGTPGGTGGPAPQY

[2] = system: ERK1/2 and Akt; assay: Inhibition of ERK1/2 and Akt activation in A172-A2 glioma cells (immunoblot); type: cell-based; details: 50 μM and 100 μM, 90 minutes
Experimental: (§1) Cells were plated in 24-well dishes at a density of 100,000 cells/well and grown for 24 hours prior to stimulation with appropriate compounds and ephrins for the given amounts of time. Compounds were prepared in DMSO at 500 times the final concentrations and 0.2% DMSO was used as vehicle control. Following treatment, cells were lysed directly in SDS Gel Loading Buffer and immunoblotted as described previously. […] For immunoprecipitation, 300,000 cells/well were plated in 6-well dishes and lysed in modified RIPA Buffer (20 mM Tris-HCl pH 7.4, 20 mM NaF, 150 mM NaCl, 10% glycerol, 0.1% SDS, 0.5% DCA, 2 mM EDTA, 1% Triton X-100) following treatment. Either 10 ag of ephrin-A1-Fc, or 4 mg of EphA2 mouse monoclonal antibody (Clone D7, Millipore) were used, and mouse IgG was used as a negative control for EphA2 IP. […] We first tested this by utilizing the A172 glioma cells engineered to overexpress EphA2 receptor (A172-A2).

[3] = target: EphA2 (Homo sapiens, UniProt P29317); assay: EphA2 activation in A172-A2 glioma cells (immunoprecipitation, immunoblot); type: cell-based; parameters: expressed in transfected cells; host or cells: A172 (A172-A2)
EphA2, sequence (P29317 24-976): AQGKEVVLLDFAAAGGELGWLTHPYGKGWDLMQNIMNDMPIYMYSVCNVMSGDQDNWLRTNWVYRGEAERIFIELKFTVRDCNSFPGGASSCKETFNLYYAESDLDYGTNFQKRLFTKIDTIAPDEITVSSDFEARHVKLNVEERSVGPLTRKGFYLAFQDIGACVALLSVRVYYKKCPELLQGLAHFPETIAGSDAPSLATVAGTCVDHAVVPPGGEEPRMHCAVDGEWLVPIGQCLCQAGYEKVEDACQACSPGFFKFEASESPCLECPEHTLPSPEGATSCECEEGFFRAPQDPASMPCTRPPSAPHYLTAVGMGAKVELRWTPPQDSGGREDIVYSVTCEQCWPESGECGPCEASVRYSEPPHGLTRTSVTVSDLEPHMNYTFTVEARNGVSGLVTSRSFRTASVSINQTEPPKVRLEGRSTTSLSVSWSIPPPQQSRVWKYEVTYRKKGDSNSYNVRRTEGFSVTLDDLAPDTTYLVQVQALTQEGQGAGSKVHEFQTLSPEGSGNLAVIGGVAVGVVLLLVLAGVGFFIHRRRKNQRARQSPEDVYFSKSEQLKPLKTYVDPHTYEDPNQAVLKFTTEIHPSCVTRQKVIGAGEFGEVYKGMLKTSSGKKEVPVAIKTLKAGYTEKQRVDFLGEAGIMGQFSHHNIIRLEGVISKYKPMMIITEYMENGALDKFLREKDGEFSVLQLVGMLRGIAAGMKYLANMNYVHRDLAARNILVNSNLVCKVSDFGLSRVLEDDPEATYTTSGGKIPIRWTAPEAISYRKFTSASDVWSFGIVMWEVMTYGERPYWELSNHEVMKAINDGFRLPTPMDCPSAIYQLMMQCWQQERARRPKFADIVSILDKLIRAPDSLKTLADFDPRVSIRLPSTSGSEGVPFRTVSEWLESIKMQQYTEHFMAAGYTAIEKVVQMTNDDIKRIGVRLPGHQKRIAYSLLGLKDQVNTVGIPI
Experimental: as §1

[4] = target: T2, EphA1 (Homo sapiens, UniProt P21709); assay: Eph receptor activation in HEK 293 cells overexpressing EphA1; type: cell-based; details: HEK 293 cells overexpressing EphA1, same concentrations, 60 minutes
T2 construct: expressed in transfected cells; host or cells: HEK 293
T2 sequence (P21709 26-976): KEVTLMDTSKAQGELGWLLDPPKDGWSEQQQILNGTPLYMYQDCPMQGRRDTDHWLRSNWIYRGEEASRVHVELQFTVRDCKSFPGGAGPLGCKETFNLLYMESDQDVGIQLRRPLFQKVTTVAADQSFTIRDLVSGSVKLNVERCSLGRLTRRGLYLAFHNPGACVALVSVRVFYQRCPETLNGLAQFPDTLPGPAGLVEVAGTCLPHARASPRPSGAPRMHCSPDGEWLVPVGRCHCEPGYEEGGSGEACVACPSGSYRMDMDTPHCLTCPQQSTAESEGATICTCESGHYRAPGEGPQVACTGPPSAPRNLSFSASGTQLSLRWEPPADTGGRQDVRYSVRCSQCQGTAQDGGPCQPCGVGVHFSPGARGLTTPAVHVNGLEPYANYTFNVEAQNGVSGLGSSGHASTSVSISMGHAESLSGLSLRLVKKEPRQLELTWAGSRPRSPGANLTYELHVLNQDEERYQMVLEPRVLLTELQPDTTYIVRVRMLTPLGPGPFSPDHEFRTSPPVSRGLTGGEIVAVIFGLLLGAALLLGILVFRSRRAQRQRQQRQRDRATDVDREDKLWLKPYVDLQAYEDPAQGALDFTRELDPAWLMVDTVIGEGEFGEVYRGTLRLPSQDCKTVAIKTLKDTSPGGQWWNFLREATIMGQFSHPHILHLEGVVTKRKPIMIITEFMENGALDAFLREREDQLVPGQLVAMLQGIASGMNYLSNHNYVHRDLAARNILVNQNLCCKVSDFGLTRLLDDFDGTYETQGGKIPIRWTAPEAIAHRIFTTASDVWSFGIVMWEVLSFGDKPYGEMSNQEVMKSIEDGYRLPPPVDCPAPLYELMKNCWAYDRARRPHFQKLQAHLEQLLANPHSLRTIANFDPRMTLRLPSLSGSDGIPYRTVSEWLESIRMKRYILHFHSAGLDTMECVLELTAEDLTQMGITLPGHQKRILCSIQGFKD
Experimental: Cells were plated in 24-well dishes at a density of 100,000 cells/well and grown for 24 hours prior to stimulation with appropriate compounds and ephrins for the given amounts of time. Compounds were prepared in DMSO at 500 times the final concentrations and 0.2% DMSO was used as vehicle control. Following treatment, cells were lysed directly in SDS Gel Loading Buffer and immunoblotted as described previously. […] For this purpose, HEK 293 cell lines overexpressing EphA1, EphA2, EphA3, EphA4, and EphB3 kinases were utilized.

[5] = target: T3, EphA4 LBD (Homo sapiens, UniProt P54764); assay: Isothermal titration calorimetry (ITC) binding; details: read-out: dissociation constant (KD)
T3 construct: made in house
T3 sequence (P54764 29-209, species assumed): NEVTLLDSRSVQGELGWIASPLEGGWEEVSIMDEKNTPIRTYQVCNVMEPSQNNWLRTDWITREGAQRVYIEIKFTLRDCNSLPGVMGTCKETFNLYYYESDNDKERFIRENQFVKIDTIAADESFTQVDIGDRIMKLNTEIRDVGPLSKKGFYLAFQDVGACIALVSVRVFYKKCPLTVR
Experimental: Production of the 181-residue EphA4 ligand binding domain (LBD, residues 29-209) and isothermal titration calorimetry (ITC) experiments were performed as previously described. […] By superimposing HSQC spectra, the shifted HSQC peaks could be identified and further assigned to the corresponding residues of the EphA4 ectodomain. The degree of perturbation was measured by an integrated chemical shift index (CSI) calculated by the formula [(ΔH)^2+(ΔN)^2/5]^1/2.

[6] = system: PC3-DAB2IP KD cells; assay: Haptotactic cell migration toward fibronectin (modified Boyden chamber); type: cell-based, human; details: 4 hours
From the text: One of the well-established functions of Eph receptors is the ligand-dependent repulsive guidance of cell migration. As a ligand-mimicking agonist for EphA2, doxazosin is expected to activate EphA2 on tumor cells and repulse migrating tumor cells in vitro. To test this possibility, we first investigated the effects of doxazosin on integrin-mediated haptotactic cell migration toward fibronectin in a modified Boyden chamber cell migration assay. […] The inhibitory effects were observed when doxazosin was presented either in the bottom chamber, or in both top and bottom chambers in the Transwell assay system. […] Therefore, doxazosin can recapitulate a key function attributed to its native ligands, i.e., negative regulation of cell migration.

SMILES: COc1cc2nc(N3CCN(C(=O)C4COc5ccccc5O4)CC3)nc(N)c2cc1OC (stereo not shown) [doxazosin]
- endogenous EphB4 activation [1]: not activated
- inhibition of Akt and ERK1/2 activation [2]: significant inhibition of Akt and ERK1/2 activation
- concentration at which EphA2 activation starts ([3]; A172-A2 glioma cells, 90 minutes): around 25 μM
- EphA2 level after treatment ([3]; A172 cells): degradation of EphA2
- EphA1 activation, Eph receptor panel [4]: no activation of EphA1
- Kd [5]: 12.4 µM
- haptotactic cell migration toward fibronectin [6]: dose-dependent inhibition of cell migration
